16 compounds from US20070043076A1, “Substituted 2-arylmethylene-n-aryl-n'aryl-malonamides and analogs as activators of caspases and inducers of apoptosis” (priority 2003, published 2007) can be followed below.

Assay [1] deals with T-47D. Put plainly: Caspase cascade activation (Ac-DEVD-R110 fluorogenic substrate) in T-47D cells. Type of assay: cell-based, Human. Conditions: 24 h incubation; for Caspase Activity Ratio: ratio of net RFU to that of control samples; for EC50: 0.16 to 10 μM final, read-out: Caspase potency EC50. The method, then: (§1) Human breast cancer cell lines T-47D and ZR-75-1 were grown according to media component mixtures designated by American Type Culture Collection +10% FCS (Invitrogen Corporation), in a 5% CO2-95% humidity incubator at 37° C. T-47D and ZR-75-1 cells were maintained at a cell density between 30 and 80% confluency and for HL-60 at a cell density of 0.1 to 0.6×10^6 cells/mL. Cells were harvested at 600×g and resuspended at 0.65×10^6 cells/mL into appropriate media +10% FCS. An aliquot of 45 μL of cells was added to a well of a 96-well microtiter plate containing 5 μL of a 10% DMSO in RPMI-1640 media solution containing 1.6 to 100 μM of N,N′-bis-(3-trifluoromethyl-phenyl)-2-(4-isopropyl-benzylidene)-malonamide or other test compound (0.16 to 10 μM final). An aliquot of 45 μL of cells was added to a well of a 96-well microtiter plate containing 5 μL of a 10% DMSO in RPMI-1640 media solution without test compound as the control sample. The samples were mixed by agitation and then incubated at 37° C. for 24 h in a 5% CO2-95% humidity incubator. After incubation, the samples were removed from the incubator and […] of a solution containing 20 μM of N-(Ac-DEVD)-N′-ethoxycarbonyl-R110 fluorogenic substrate (SEQ ID NO:1) (Cytovia, Inc.; U.S. Pat. No. 6,335,429), 20% sucrose (Sigma), 20 mM DTT (Sigma), 200 mM NaCl (Sigma), 40 mM Na PIPES buffer pH 7.2 (Sigma), and 500 μg/mL lysolecithin (Calbiochem) was added. The samples were mixed by agitation and incubated at room temperature. Using a fluorescent plate reader (Model 1420 Wallac Instruments), an initial reading (T=0) was made approximately 1-2 min after addition of the substrate solution, employing excitation at 485 nm and emission at 530 nm, to determine the background fluorescence of the control sample. After approximately 3 h of incubation, the samples were read for fluorescence as above (T=3 h).
(§2) The relative Fluorescence Unit values (RFU) were used to calculate the sample readings as follows: RFU(T=3h)−Control RFU(T=0)=Net RFU(T=3h)
(§3) The activity of caspase cascade activation was determined by the ratio of the net RFU value for N,N′-bis-(3-trifluoromethyl-phenyl)-2-(4-isopropyl-benzylidene)-malonamide to that of control samples. The EC50 (nM) was determined by a sigmoidal dose-response calculation (Prism 2.0, GraphPad Software Inc.).

The test system of a further assay is ZR-75-1. Put plainly: Caspase cascade activation (Ac-DEVD-R110 fluorogenic substrate) in ZR-75-1 cells. It is filed as cell-based, Human. Conditions: 24 h incubation; for Caspase Activity Ratio: ratio of net RFU to that of control samples; for EC50: 0.16 to 10 μM final, read-out: Caspase potency EC50. How it is done: as §1, §2, §3
Another assay relates to DLD-1. Put plainly: Inhibition of cell proliferation (GI50, CellTiter 96 AQueous One) in DLD-1 cells. The note with it: Homo sapiens, 48 h incubation, read-out: GI50 (dose for 50% inhibition of cell proliferation). It is filed as cell-based. How it is done:
(§4) T-47D and DLD-1 cells were grown and harvested as in Example 105. An aliquot of 90 μL of cells (2.2×10^4 cells/mL) was added to a well of a 96-well microtiter plate containing 10 μl of a 10% DMSO in RPMI-1640 media solution containing 1 nM to 100 μM of N,N′-bis-(3-trifluoromethyl-phenyl)-2-(4-isopropyl-benzylidene)-malonamide (0.1 nM to 10 μM final). An aliquot of 90 μL of cells was added to a well of a 96-well microtiter plate containing 10 μL of a 10% DMSO in RPMI-1640 media solution without compound as the control sample for maximal cell proliferation (AMax). The samples were mixed by agitation and then incubated at 37° C. for 48 h in a 5% CO2-95% humidity incubator. After incubation, the samples were removed from the incubator and 20 μL of CellTiter 96 AQUEOUS One Solution Cell Proliferation™ reagent (Promega) was added. The samples were mixed by agitation and incubated at 37° C. for 2-4 h in a 5% CO2-95% humidity incubator. Using an absorbance plate reader (Model 1420 Wallac Instruments), an initial reading (T=0) was made approximately 1-2 min after addition of the solution, employing absorbance at 490 nm. This determines the possible background absorbance of the test compounds. No absorbance for N,N′-bis-(3-trifluoromethyl-phenyl)-2-(4-isopropyl-benzylidene)-malonamide was found at 490 nm. After the 2-4 h incubation, the samples were read for absorbance as above (ATest).
(§5) Baseline for GI50 (dose for 50% inhibition of cell proliferation) of initial cell numbers were determined by adding an aliquot of 90 μL of cells or 90 μL of media, respectively, to wells of a 96-well microtiter plate containing 10 μL of a 10% DMSO in RPMI-1640 media solution. The samples were mixed by agitation and then incubated at 37° C. for 0.5 h in a 5% CO2-95% humidity incubator. After incubation, the samples were removed from the incubator and 20 μL of CellTiter 96 AQUEOUS One Solution Cell Proliferation™ reagent (Promega) was added. The samples were mixed by agitation and incubated at 37° C. for 2-4 h in a 5% CO2-95% humidity incubator. Absorbance was read as above, (AStart) defining absorbance for initial cell number used as baseline in GI50 determinations.
(§6) GI50 (dose for 50% inhibition of cell proliferation) is the concentration where [(ATest−AStart)/(AMax−AStart)]=0.5.

Assay [2] has as its system T-47D. Put plainly: Inhibition of cell proliferation (GI50, CellTiter 96 AQueous One) in T-47D cells. Type of assay: cell-based. The note with it: Homo sapiens, T47D, 48 h incubation, read-out: GI50 (dose for 50% inhibition of cell proliferation). How it is done:
as §4, §5, §6

Read-outs that look alike come from different tables or passages of the source.

The term EC50 denotes the concentration that produces a half-maximal response.

For the compound `COc1ccc(C=C(C(=O)Nc2cccc(C(F)(F)F)c2)C(=O)Nc2cccc(C(F)(F)F)c2)c(OC)c1` [Example 6, N,N′-Bis-(3-trifluoromethyl-phenyl)-2-(2,4-dimethoxy-benzylidene)-malonamide], the “Caspase Activity Ratio” value with T-47D [1] and with ZR-75-1 was 1 in each case. Moreover, the EC50 in the assay with T-47D [1] (Homo sapiens, T47D) is above 10000 nM; with ZR-75-1 (Homo sapiens) it was above 10000 nM.
Regarding `O=C(Nc1cccc(C(F)(F)F)c1)C(=Cc1ccco1)C(=O)Nc1cccc(C(F)(F)F)c1` [Example 4, N,N′-Bis-(3-trifluoromethyl-phenyl)-2-furan-2-yl-methylene-malonamide], in the assay with T-47D [1], the EC50 amounted to 5750 nM and the “Caspase Activity Ratio” value was 28. In the assay with ZR-75-1, the EC50 turned out to be 5600 nM and the “Caspase Activity Ratio” value is 6.
With `CC(C)c1ccc(C=C(C(=O)Nc2ccc(C(F)(F)F)cc2)C(=O)Nc2ccc(C(F)(F)F)cc2)cc1` [Example 12, N,N′-Bis-(4-trifluoromethyl-phenyl)-2-(4-isopropyl-benzylidene)-malonamide], the “Caspase Activity Ratio” value in the assay with T-47D [1] and in the assay on ZR-75-1 was 1 each time. Also, the EC50 is above 10000 nM in the assay on T-47D [1] (Homo sapiens, T47D) and above 10000 nM with ZR-75-1 (Homo sapiens).
In the case of `Cc1ccc(C=C(C(=O)Nc2cccc(C(F)(F)F)c2)C(=O)Nc2cccc(C(F)(F)F)c2)c(C)c1` [Example 5, N,N′-Bis-(3-trifluoromethyl-phenyl)-2-(2,4-dimethyl-benzylidene)-malonamide], the “Caspase Activity Ratio” value was determined as 30 in the assay with T-47D [1] and 26 in the assay on ZR-75-1. Moreover, the EC50 amounted to 1900 nM in the assay on T-47D [1] (Homo sapiens, T47D) and 5400 nM with ZR-75-1 (Homo sapiens).
As for `CC(C)c1ccc(C=C(C(=O)Nc2cccc(O)c2)C(=O)Nc2cccc(O)c2)cc1` [Example 18, N,N′-Bis-(3-hydroxy-phenyl)-2-(4-isopropyl-benzylidene)-malonamide], the figures for the GI50 in the assay with DLD-1 and with T-47D [2] were 1650 nM and 467 nM, respectively.
For the compound `O=C(Nc1cccc(C(F)(F)F)c1)C(=Cc1ccncc1)C(=O)Nc1cccc(C(F)(F)F)c1` [Example 8, N,N′-Bis-(3-trifluoromethyl-phenyl)-2-(4-pyridyl-methylene)-malonamide], the figures for the “Caspase Activity Ratio” value with T-47D [1] and in the assay on ZR-75-1 were 17 and 9.5, respectively. In addition, the half-maximal effective concentration (EC50) in the assay on T-47D [1] (Homo sapiens, T47D) stood at 4050 nM; in the assay on ZR-75-1 (Homo sapiens), 4600 nM. Further, the values for the GI50 in the assay on DLD-1 and with T-47D [2] were 1530 nM and 1570 nM, respectively.
As to `COc1cccc(NC(=O)C(=Cc2ccc(C(F)(F)F)cc2)C(=O)Nc2cccc(OC)c2)c1` [Example 1, N,N′-Bis-(3-methoxy-phenyl)-2-(4-trifluoromethyl-benzylidene)-malonamide], the figures for the “Caspase Activity Ratio” value in the assay with T-47D [1] and with ZR-75-1 were 28 and 14, respectively. Moreover, the EC50 in the assay with T-47D [1] (Homo sapiens, T47D) was 2850 nM; in the assay with ZR-75-1 (Homo sapiens), 5500 nM.
Regarding `CC(C)c1ccc(C=C(C(=O)Nc2cccc(Cl)c2)C(=O)Nc2cccc(Cl)c2)cc1` [Example 14, N,N′-Bis-(3-chloro-phenyl)-2-(4-isopropyl-benzylidene)-malonamide], the “Caspase Activity Ratio” value with T-47D [1] is reported as 21; with ZR-75-1, 7.2. The EC50 is 738 nM in the assay on T-47D [1] (Homo sapiens, T47D) and 1980 nM in the assay with ZR-75-1 (Homo sapiens). The GI50 in the assay on DLD-1 was determined as 1230 nM; in the assay on T-47D [2], 1190 nM.
Regarding `CC(C)c1ccc(C=C(C(=O)Nc2ccccc2C(F)(F)F)C(=O)Nc2ccccc2C(F)(F)F)cc1` [Example 11, N,N′-Bis-(2-trifluoromethyl-phenyl)-2-(4-isopropyl-benzylidene)-malonamide], the “Caspase Activity Ratio” value in the assay with T-47D [1] and with ZR-75-1 was 1 throughout. Also, the EC50 is above 10000 nM in the assay on T-47D [1] (Homo sapiens, T47D) and above 10000 nM in the assay on ZR-75-1 (Homo sapiens).
Consider `O=C(Nc1cccc(C(F)(F)F)c1)C(=Cc1cnc[nH]1)C(=O)Nc1cccc(C(F)(F)F)c1` [Example 16, N,N′-Bis-(3-trifluoromethyl-phenyl)-2-(3H-imidazol-4-yl-methylene)-malonamide], for which the GI50 in the assay on DLD-1 worked out at 1680 nM; in the assay with T-47D [2], 1720 nM.
With `CC(C)c1ccc(CC(C(=O)Nc2cccc(C(F)(F)F)c2)C(=O)Nc2cccc(C(F)(F)F)c2)cc1` [Example 7, N,N′-Bis-(3-trifluoromethyl-phenyl)-2-(4-isopropyl-benzyl)-malonamide], the “Caspase Activity Ratio” value in the assay with T-47D [1] is reported as 1; in the assay with ZR-75-1 it was 2.2. For the same compound, the EC50 is above 10000 nM with T-47D [1] (Homo sapiens, T47D) and 1700 nM in the assay on ZR-75-1 (Homo sapiens).
With `CC(C)c1ccc(C=C(C(=O)Nc2ccccc2)C(=O)Nc2ccccc2)cc1` [Example 10, N,N′-Diphenyl-2-(4-isopropyl-benzylidene)-malonamide], the “Caspase Activity Ratio” value in the assay with T-47D [1] worked out at 16; in the assay with ZR-75-1, 2.5. Further, the half-maximal effective concentration (EC50) with T-47D [1] (Homo sapiens, T47D) was determined as 5790 nM; in the assay on ZR-75-1 (Homo sapiens) it was 4500 nM.
For `O=C(Nc1cccc(C(F)(F)F)c1)C(=Cc1ccccc1)C(=O)Nc1cccc(C(F)(F)F)c1` [Example 15, N,N′-Bis-(3-trifluoromethyl-phenyl)-2-benzylidene-malonamide], the “Caspase Activity Ratio” value is listed as 16 in the assay with T-47D [1] and 6 in the assay with ZR-75-1. Besides, the EC50 with T-47D [1] (Homo sapiens, T47D) was 1380 nM; with ZR-75-1 (Homo sapiens) it was 2790 nM. For the same compound, the GI50 was 1340 nM with DLD-1 and 46 nM with T-47D [2].
In the case of `CCc1ccc(C=C(C(=O)Nc2cccc(C(F)(F)F)c2)C(=O)Nc2cccc(C(F)(F)F)c2)cc1` [Example 26, N,N′-Bis-(3-trifluoromethyl-phenyl)-2-(4-ethyl-benzylidene)-malonamide], the results for the GI50 in the assay with DLD-1 and in the assay with T-47D [2] were 1650 nM and 666 nM, respectively.
On to `COc1cccc(NC(=O)C(=Cc2ccc(C(C)C)cc2)C(=O)Nc2cccc(OC)c2)c1` [Example 13, N,N′-Bis-(3-methoxy-phenyl)-2-(4-isopropyl-benzylidene)-malonamide], for which the results for the “Caspase Activity Ratio” value in the assay on T-47D [1] and in the assay on ZR-75-1 were 21 and 4.5, respectively. Further, the concentration giving a half-maximal response (EC50) worked out at 2890 nM in the assay on T-47D [1] (Homo sapiens, T47D) and 5500 nM in the assay on ZR-75-1 (Homo sapiens).
As to `CC(C)c1ccc(C=C(C(=O)Nc2cccc(Br)c2)C(=O)Nc2cccc(Br)c2)cc1` [Example 20, N,N′-Bis-(3-bromo-phenyl)-2-(4-isopropyl-benzylidene)-malonamide], the GI50 was determined as 1660 nM in the assay with DLD-1 and 1520 nM in the assay on T-47D [2].
